From article PMC12040169 (PLOS Biology, 2025)
“And” between values parts separate entries of the source, which are not always exact repeats. Equal entries are not always repeated.

Key:
[1] = in vitro; conditions: human, hela cells, % viability
[2] = system: HeLa; conditions: bulk resorufin, single well, 28.5 h, 10 µM, Bulk resorufin fluorescence

## Clc1ccc(COc2ccnc(N3CCCN(CCN4CCOCC4)CC3)n2)cc1Cl [CBK083957]
[1]
  viability at 28.5 h, 10 µM: 97.8%
[2]
  % viability: 98.9%

## CC(C)n1cc(CN2CC3C[C@@H](O)CN3C[C@H]2C)c2ccccc21 (stereo partly drawn) [CBK285437]
[1]
  viability at 28.5 h, 10 µM: 107%
[2]
  % viability: 88.8%

## O=C(Nc1ccccc1OC1CCNCC1)C1CCC1 [CBK045901T]
[1]
  viability at 28.5 h, 10 µM: 109%
[2]
  % viability: 97.8%

## C[C@H](Cn1c(C(F)(F)F)cc2cccnc21)NC(=O)C1CC1 [CBK283227]
[1]
  viability at 28.5 h, 10 µM: 93.7%
[2]
  % viability: 89.4%

## C[C@@H]1CN2CCCC2CN1Cc1cc(F)cc(F)c1 (stereo partly drawn) [CBK285405]
[1]
  viability at 28.5 h, 10 µM: 96.1%
[2]
  % viability: 105%

## Cc1cc(CNC(=S)NC2CCCCC2)nn1C [CBK288519]
[1]
  viability at 28.5 h, 10 µM: 82.5%
[2]
  % viability: 94%

## O=C(CN1C(=O)[C@@H]2CCCN2C(=O)c2ccccc21)N1CCOCC1 [CBK286401]
[1]
  viability at 28.5 h, 10 µM: 83.9%
[2]
  % viability: 103%

## O=C1CSC(Nc2ccc(Br)cc2)=N1 [CBK026413]
[1]
  viability at 28.5 h, 10 µM: 79.9%
[2]
  % viability: 88.5%

## O=C(NC1CCCCC1)[C@H]1C=CCN1C(=O)c1ccc(F)cc1F [CBK282311]
[1]
  viability at 28.5 h, 10 µM: 95%
[2]
  % viability: 97.2%

## O=C(CN1C(=O)[C@H]2CCCN2C(=O)c2ccccc21)NC1CCCC1 [CBK282438]
[1]
  viability at 28.5 h, 10 µM: 112%
[2]
  % viability: 110%

## O=C(O)c1cc(-c2ccccc2)c2c(=O)[nH][nH]c2n1 [CBK286631]
[1]
  viability at 28.5 h, 10 µM: 105%
[2]
  % viability: 102% and 88.2%

## C=CCn1cc(CN2C[C@@H]3CCCN3C[C@H]2CCSC)c(C)n1 [CBK285420]
[1]
  viability at 28.5 h, 10 µM: 87.6%
[2]
  % viability: 106%

## CCOc1ccc(CN2CC3CCCN3C[C@H]2C)cc1 (stereo partly drawn) [CBK285422]
[1]
  viability at 28.5 h, 10 µM: 87.8%
[2]
  % viability: 100%

## Cc1nn(C)c(N2CCNCC2)c1NC(=O)c1ccoc1 [CBK050302T]
[1]
  viability at 28.5 h, 10 µM: 99.7%
[2]
  % viability: 108%

## O=C(O)/C=C\C(=O)Nc1ccccc1C#Cc1ccccc1 [CBK261680]
[1]
  viability at 28.5 h, 10 µM: 82.9%
[2]
  % viability: 83.2%

## O=C(NC[C@@H]1CCCN(C(=O)c2cscn2)C1)c1cccs1 [CBK284263]
[1]
  viability at 28.5 h, 10 µM: 85.7%
[2]
  % viability: 93.5%

## C[C@@H]1CN2CCCC2CN1Cc1ccsc1 (stereo partly drawn) [CBK285411]
[1]
  viability at 28.5 h, 10 µM: 110%
[2]
  % viability: 109%

## CC(=O)Nc1ccc(S(=O)(=O)Nc2c(C(=O)N3CCN(C)CC3)[nH]c3ccccc23)cc1 [CBK050044]
[1]
  viability at 28.5 h, 10 µM: 94.9%
[2]
  % viability: 93.9%

## Cc1nn(C)c(Cl)c1S(=O)(=O)Nc1nc(=O)[nH]cc1F [CBK067568]
[1]
  viability at 28.5 h, 10 µM: 99.1%
[2]
  % viability: 97.9% and 87.2%

## COc1ccc(CC(=O)N2CCN(Cc3ccco3)C[C@H]2C)cc1 [CBK285483]
[1]
  viability at 28.5 h, 10 µM: 96%
[2]
  % viability: 104%

## COc1cc(-c2ccc(OC3CCNCC3)cc2)cc(OC)c1OC [CBK093682]
[1]
  viability at 28.5 h, 10 µM: 99%
[2]
  % viability: 102%

## C/C(=N\O)c1cc2cc(Cl)cc(Cl)c2oc1=O [CBK288516]
[1]
  viability at 28.5 h, 10 µM: 84.5%
[2]
  % viability: 90.6%

## COCCn1c(C)cc(CN2CC3CCCN3C[C@@H]2C)c1C (stereo partly drawn) [CBK285421]
[1]
  viability at 28.5 h, 10 µM: 83.8%
[2]
  % viability: 101%

## CCOC(=O)c1sc2nccc(Nc3ccccc3)c2c1N [CBK115365]
[1]
  viability at 28.5 h, 10 µM: 90.8%
[2]
  % viability: 91.8%

## O=C(O)CCNc1c(C(=O)O)cnc2ccccc12 [CBK261139]
[1]
  viability at 28.5 h, 10 µM: 83.3%
[2]
  % viability: 89%

## Cc1ccc(Nc2cc(N3CCC(C(=O)O)CC3)ncn2)cc1 [CBK288121]
[1]
  viability at 28.5 h, 10 µM: 104%
[2]
  % viability: 91.3%

## CC[C@H](Cn1ncc2ccccc2c1=O)NC(=O)c1ccco1 [CBK284300]
[1]
  viability at 28.5 h, 10 µM: 78.6%
[2]
  % viability: 86.8%

## Cc1ccc(C(=O)NCC(=O)NCC(=O)O)cc1 [CBK262170]
[1]
  viability at 28.5 h, 10 µM: 103%
[2]
  % viability: 91.7%

## O=c1cc(CSc2ccccn2)[nH]c2[nH]n(-c3ccccc3)c(=O)c12 [CBK269895]
[1]
  viability at 28.5 h, 10 µM: 92.7%
[2]
  % viability: 109%

## CCn1cc(CN2C[C@@H]3CCCN3C[C@H]2CCSC)c(C)n1 [CBK285460]
[1]
  viability at 28.5 h, 10 µM: 96.3%
[2]
  % viability: 99.1%

## O=C(CN1C(=O)[C@@H]2CCCN2c2ncccc21)NCc1ccccc1 [CBK286203]
[1]
  viability at 28.5 h, 10 µM: 115%
[2]
  % viability: 117%

## CCS(=O)(=O)N1CC=C[C@H]1C(=O)NCCc1ccccc1 [CBK284325]
[1]
  viability at 28.5 h, 10 µM: 107%
[2]
  % viability: 89.7%

## O=C(O)c1cc(S(=O)(=O)NCc2ccco2)c(Cl)cc1Cl [CBK113171]
[2]
  % viability: 107% and 83.2%

## COC(=O)c1ccc(-c2cc3ccccc3o2)nc1 [CBK149228]
[2]
  % viability: 96.5%

## COc1ccc(C(=O)Nc2nnc(CC(=O)N/N=C/c3ccccc3OC)s2)cc1 [CBK072076]
[1]
  viability at 28.5 h, 10 µM: 91.8%
[2]
  % viability: 101%

## O=C(NCCc1ccccc1)[C@H]1C=CCN1C(=O)c1ccc(F)cc1 [CBK282383]
[1]
  viability at 28.5 h, 10 µM: 89.4%
[2]
  % viability: 96.3% and 92.6%

## O=c1[nH][nH]c2c1cnc1c(C(F)(F)F)cccc12 [CBK287996]
[2]
  % viability: 113% and 84.4%

## CC(=O)Nc1ccc(NS(=O)(=O)c2ccc(O)c(C(=O)O)c2)cc1 [CBK092150]
[1]
  viability at 28.5 h, 10 µM: 115%
[2]
  % viability: 96.9%

## CCn1ncc(CN2C[C@@H]3CCCN3C[C@@H]2CCSC)c1C [CBK285446]
[1]
  viability at 28.5 h, 10 µM: 109%
[2]
  % viability: 110%

## O=C(CN1C(=O)[C@H]2CCCN2C(=O)c2ccccc21)NC1CC1 [CBK282436]
[2]
  % viability: 122% and 91.3%

## CC(=O)NC[C@H]1CN(c2ccc(-c3cc4ccccc4n3C(=O)OC(C)(C)C)c(F)c2)C(=O)O1 [CBK011849]
[1]
  viability at 28.5 h, 10 µM: 98.1%
[2]
  % viability: 82.6%

## CC(=O)n1cc(C2C(=O)NN=C2C)c2ccccc21 (stereo not drawn) [CBK083563]
[1]
  viability at 28.5 h, 10 µM: 102%
[2]
  % viability: 82.3%

## CCCCOC(=O)c1ccc(NC(=O)Nc2ccc3ccc(Cl)nc3n2)cc1 [CBK115932]
[1]
  viability at 28.5 h, 10 µM: 93.8%
[2]
  % viability: 97.1%

## CCN(Cc1ccccc1)C(=O)NCC1COc2ccccc2O1 (stereo not drawn) [CBK155213]
[1]
  viability at 28.5 h, 10 µM: 103%
[2]
  % viability: 89.3%

## OC1CCn2c1nc1cc(C(F)(F)F)ccc12 (stereo not drawn) [CBK115448]
[1]
  viability at 28.5 h, 10 µM: 80.4%
[2]
  % viability: 70.8%

## COCCn1cnc2sc(C(=O)NCc3ccccc3OC)c(C)c2c1=O [CBK071862]
[2]
  % viability: 95.1% and 64.7%

## CNC1=NC2CCCCC2O1 (stereo not drawn) [CBK023075F]
[1]
  viability at 28.5 h, 10 µM: 117%
[2]
  % viability: 111%

## CS(=O)(=O)N1C2CCC(C2)[C@H]1COc1cccc(C(F)(F)F)c1 (stereo partly drawn) [CBK284596]
[1]
  viability at 28.5 h, 10 µM: 98.7%
[2]
  % viability: 107%

## O=C1[C@@H]2CCCN2C(=O)c2ccccc2N1Cc1ccc(F)cc1 [CBK282856]
[1]
  viability at 28.5 h, 10 µM: 117%
[2]
  % viability: 99.5%

## CC[C@@H](Cn1nc(-c2ccc(F)c(F)c2)ccc1=O)NC(=O)C1CC1 [CBK282313]
[1]
  viability at 28.5 h, 10 µM: 90.6%
[2]
  % viability: 89.3%

## Cc1ccc(Cn2cc(Br)c(NC(=O)C(=O)O)n2)cc1 [CBK288529]
[1]
  viability at 28.5 h, 10 µM: 96.9%
[2]
  % viability: 88.4%

## Cc1c(C(=O)O)sc2nc(SCC(=O)NCc3ccccc3)[nH]c(=O)c12 [CBK301214K]
[2]
  % viability: 107%

## C[C@@H]1CN(Cc2ccco2)CCN1C(=O)Cc1ccccc1F [CBK284257]
[2]
  % viability: 83.4% and 106%

## O=C(O)c1ccc(CNCc2c(F)cccc2Cl)cc1 [CBK269496C]
[2]
  % viability: 111%

## Cc1cc(NC(=O)c2ccc(Br)o2)nc2c1c(=O)oc1ccccc12 [CBK287440]
[2]
  % viability: 85.8% and 119%

## O=C(NC1CC1)[C@@H]1C=CCN1C(=O)c1ccc(F)cc1F [CBK284279]
[2]
  % viability: 80.5% and 104%

## O=C(O)c1ccc(CNCc2c(F)cccc2Cl)cc1 [CBK269496]
[2]
  % viability: 82.3%

## Cc1cn(C2CC(O)C(CO)O2)c(=S)[nH]c1=O (stereo not drawn) [CBK012339]
[2]
  % viability: 112% and 90.8%

## COc1ccc(CCNC(=O)C2CCCCC2C(=O)O)cc1 (stereo not drawn) [CBK262636]
[2]
  % viability: 86.3% and 110%

## CC(C)NC(=O)CN1C(=O)[C@H]2CCCN2C(=O)c2ccccc21 [CBK282437]
[2]
  % viability: 112% and 88.6%

## CCN(CC)c1ccc2cc(/C(C)=N/O)c(=O)oc2c1 [CBK009063]
[2]
  % viability: 108% and 84.7%

## O=C(O)c1cccc(S(=O)(=O)N2CCN(C(=O)c3ccccc3)CC2)c1 [CBK275920]
[2]
  % viability: 113% and 91.5% and 99.3%

## COc1ccc(C(=O)Nc2nc3nc(C)cc(C)c3s2)cc1 [CBK287755]
[2]
  % viability: 105% and 83%

## CC1=CC(C)C(C(=O)O)C(C(=O)N2CCN(C)CC2)C1 (stereo not drawn) [CBK027311]
[2]
  % viability: 102%

## Clc1ccc(COc2nccnc2OC2CCN(CC3CC3)CC2)cc1Cl [CBK083123]
[2]
  % viability: 104%

## CCCO/N=C\c1ccc(-n2cnnc2)cc1 [CBK018921]
[2]
  % viability: 77.5% and 99.8%

## O=C(NC[C@H]1CCCN(C(=O)c2ccccn2)C1)c1cccs1 [CBK284262]
[2]
  % viability: 105% and 83.9%

## Oc1ccc(Nc2ncnc3c2oc2ccccc23)cc1 [CBK287967]
[2]
  % viability: 92.3% and 113%
